Measured values published in ChEMBL document CHEMBL2021881, “Ianthellamide A, a selective kynurenine-3-hydroxylase inhibitor from the Australian marine sponge Ianthella quadrangulata” (Bioorg Med Chem Lett, 2012).
The source made the active and inactive calls. The calls are words filed in the database; no cut-off is given here.

Columns and labels:
[1] = target: Kynurenine 3-monooxygenase (Rattus norvegicus) (UniProt O88867); assay: (§1) Inhibition of kynurenine-3-hydroxylase in rat liver homogenates assessed as effect on production of 3-hydroxy kynurenine incubated for 1 hr by HPLC; type: tissue-based
[2] = target: Kynurenine 3-monooxygenase (Rattus norvegicus, UniProt O88867); assay: as §1; type: tissue-based
[3] = target: Kynurenine 3-monooxygenase (Rattus norvegicus) (UniProt O88867); assay: Inhibition of kynurenine-3-hydroxylase in rat liver homogenates assessed as effect on production of 3-hydroxy kynurenine up to 125 uM incubated for 1 hr by HPLC; type: tissue-based
[4] = target: T1, Kynureninase (Rattus norvegicus) (UniProt P70712); assay: Inhibition of kynureninase in rat liver homogenates assessed as effect on production of anthranilic acid up to 125 uM incubated for 30 mins by HPLC; type: tissue-based
T1 sequence (whole entry): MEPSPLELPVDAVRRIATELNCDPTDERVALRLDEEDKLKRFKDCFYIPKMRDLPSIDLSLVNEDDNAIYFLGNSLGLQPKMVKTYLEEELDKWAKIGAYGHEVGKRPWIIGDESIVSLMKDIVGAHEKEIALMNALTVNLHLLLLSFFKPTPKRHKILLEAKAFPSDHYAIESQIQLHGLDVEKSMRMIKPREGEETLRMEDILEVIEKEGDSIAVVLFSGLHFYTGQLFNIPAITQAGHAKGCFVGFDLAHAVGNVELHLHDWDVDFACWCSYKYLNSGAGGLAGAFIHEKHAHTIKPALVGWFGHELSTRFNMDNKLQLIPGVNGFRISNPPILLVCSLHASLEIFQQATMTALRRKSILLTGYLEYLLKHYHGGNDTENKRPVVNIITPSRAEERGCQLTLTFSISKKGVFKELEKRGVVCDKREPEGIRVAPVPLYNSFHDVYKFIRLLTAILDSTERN

[5] = target: T1, Kynureninase (Rattus norvegicus); assay: Inhibition of kynureninase in rat liver homogenates assessed as effect on production of anthranilic acid at >125 uM incubated for 30 mins by HPLC; type: tissue-based
[6] = system: Rattus norvegicus; assay: Effect on extracellular kynurenic acid in rat brain dosed at 200 mg/kg, ip by in-vivo microdialysis measured for 6 hrs post dose (reference value: 1.55 +/- 0.05 pg/ml); type: functional; details: route intraperitoneal
[7] = system: Rattus norvegicus; assay: Inhibition of kynurenine-3-hydroxylase in rat brain assessed as increase in Increase in extracellular kynurenic acid level at 200 mg/kg, ip coadministered with 100 mg/kg kynurenine by in-vivo microdialysis measured within 25 mins post dose relative to untreated control; type: functional, organism-based
[8] = system: Rattus norvegicus; assay: Inhibition of kynurenine-3-hydroxylase in rat brain assessed as increase in Increase in extracellular kynurenic acid level at 200 mg/kg, ip coadministered with 100 mg/kg kynurenine by in-vivo microdialysis measured at 135 mins post dose relative to untreated control; type: functional, organism-based
[9] = system: Rattus norvegicus; assay: Inhibition of kynurenine-3-hydroxylase in rat brain assessed as increase in Increase in extracellular kynurenic acid level at 200 mg/kg, ip coadministered with 100 mg/kg kynurenine by in-vivo microdialysis measured up to 335 mins post dose relative to untreated control; type: functional
[10] = system: Rattus norvegicus; assay: Inhibition of kynurenine-3-hydroxylase in rat brain assessed as increase in Increase in extracellular kynurenic acid level at 200 mg/kg, ip coadministered with 100 mg/kg kynurenine by in-vivo microdialysis measured at 5 hrs post dose relative to untreated control; type: functional, organism-based

Sequence of Kynurenine 3-monooxygenase (Rattus norvegicus) (O88867 whole entry, looked up): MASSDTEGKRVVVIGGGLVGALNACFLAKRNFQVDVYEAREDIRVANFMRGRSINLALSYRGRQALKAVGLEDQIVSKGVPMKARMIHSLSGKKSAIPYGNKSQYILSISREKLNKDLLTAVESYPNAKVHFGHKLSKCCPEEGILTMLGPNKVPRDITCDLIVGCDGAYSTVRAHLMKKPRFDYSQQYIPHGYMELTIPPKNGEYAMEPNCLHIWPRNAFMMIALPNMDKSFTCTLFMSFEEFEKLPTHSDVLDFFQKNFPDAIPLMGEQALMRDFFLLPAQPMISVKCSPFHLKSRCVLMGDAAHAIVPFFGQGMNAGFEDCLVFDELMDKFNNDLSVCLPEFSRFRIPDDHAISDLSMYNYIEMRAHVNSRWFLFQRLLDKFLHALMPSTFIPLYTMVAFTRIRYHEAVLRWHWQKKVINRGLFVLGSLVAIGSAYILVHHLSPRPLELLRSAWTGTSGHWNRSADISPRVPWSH
Sequence of Kynurenine 3-monooxygenase (O88867 whole entry): as the sequence (O88867 whole entry, looked up) above

SMILES: CC(=O)NCCCO[C@@H](CN)c1cc(Br)c(OS(=O)(=O)O)c(Br)c1 [IANTHELLAMIDE A]
- inhibition [1]: Dose-dependent effect
- IC50 [2]: 1500 nM
- inhibition [3]: Active
- inhibition [4]: inactive
- inhibition [5]: Active
- Activity [6]: 1.72 pg/µL
- Activity [7]: Active
- Activity [8]: Active
- fold change (FC) [9]: 20
- Activity [10]: Active
